Results published in US11395847B2, “Acylated GLP-1/GLP-2 dual agonists” (Zealand Pharma A/S, priority 2016, dated 2022).
Like-named read-outs stand apart in the source and are kept apart here. Where a SMILES comes first, the peptide text is derived from it.

Experiments:
[1] = biological target: T1, human GLP-2 receptor (Homo sapiens, UniProt O95838, D470N); test: GLP-2 receptor potency assay (cAMP ALPHASCREEN, HEK293 cells stably expressing GLP-2 R); format: cell-based; conditions: cAMP response, HEK293 cells expressing human GLP-2 R; read-out: EC50 GLP-2
T1 construct: expressed in transfected cells
T1 sequence (O95838 1-553 D470N): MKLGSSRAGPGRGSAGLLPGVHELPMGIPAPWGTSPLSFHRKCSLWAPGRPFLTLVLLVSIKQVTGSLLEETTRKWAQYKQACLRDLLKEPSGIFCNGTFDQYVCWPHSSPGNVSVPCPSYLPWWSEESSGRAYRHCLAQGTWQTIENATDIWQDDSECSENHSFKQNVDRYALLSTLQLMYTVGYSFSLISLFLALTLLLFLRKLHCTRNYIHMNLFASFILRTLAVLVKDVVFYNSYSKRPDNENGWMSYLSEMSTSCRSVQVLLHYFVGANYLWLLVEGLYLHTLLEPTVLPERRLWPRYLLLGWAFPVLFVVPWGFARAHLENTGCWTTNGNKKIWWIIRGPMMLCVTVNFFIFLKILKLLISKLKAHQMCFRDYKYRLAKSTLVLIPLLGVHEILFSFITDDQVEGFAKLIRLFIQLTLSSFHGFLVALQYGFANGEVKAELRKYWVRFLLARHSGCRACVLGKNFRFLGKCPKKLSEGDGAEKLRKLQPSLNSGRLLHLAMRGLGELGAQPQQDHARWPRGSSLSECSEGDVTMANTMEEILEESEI
Source text: One useful in vitro assay for measuring GLP-1 and GLP-2 receptor activity is quantitation of cAMP, i.e. 3′-5′-cyclic adenosine monophosphate, which is a second messenger essential in many biological processes, and one of the most ubiquitous mechanisms for regulating cellular functions.
For subcloning into a mammalian expression vector, primers for subcloning were obtained from DNA-Technology, Risskov, Denmark. The 5′ and 3′ primers used for the PCR reaction include terminal restriction sites for cloning and the context of the 5′ primer is modified to a Kozak consensus without changing the sequence of the product encoded by the ORF. […] The generated PCR product was purified using GFX PCR and Gel band purification kit, digested with restriction enzymes and cloned into the mammalian expression vector using Rapid DNA Ligation Kit. Ligation reaction was transformed to XL10 Gold Ultracompetent cells and colonies were picked for DNA production using ENDOFREE® Plasmid maxi kit. Subsequent sequence analysis was conducted by MWG Eurofins, Germany.
HEK293 cells were transfected using the LIPOFECTAMINE® PLUS transfection method. The day before transfection, HEK293 cells were seeded in two T75 flasks at a density of 2×10^6 cells/T75 flask in cell culturing medium without antibiotics. On the day of transfection, cells were washed with 1× DPBS and medium was replaced with OPTI-MEM© to a volume of 5 mL/T75 flask before addition of LIPOFECTAMINE®-plasmid complexes were added gently and drop wise to the cells in T75 flasks and replaced with growth medium after 3 hours and again to growth medium supplemented with 500 μg/mL G418 after 24 hours. Following 4 weeks in G418 selection, clones were picked and tested in a functional GLP-2 receptor potency assay as described below.
The cAMP ALPHASCREEN® assay from Perkin Elmer was used to quantitate the cAMP response to activation of the GLP1 and GLP2 receptor, respectively. […] Data from test compounds eliciting an increase in the intracellular level of cAMP were normalized relative to the positive and negative control (vehicle) to calculate the EC50 and maximal response from the concentration response curve.

[2] = Chemical stability (RP-HPLC normalized purity after incubation at 40° C.); format: physicochemical; conditions: 14-day incubation, 0.2 mg/ml, normalized purity (area-%); for pH 7 normalized stability: pH 7, 40° C.
How it was run: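 Peptide at 0.2 mg/ml final in water adjusted to pH 6, 7, 7.5 or 9, incubated at 40° C for 14 days. Purity measured as main-peak area-% by C18 RP-HPLC (acetonitrile/TFA/water gradient, UV 220 nm) and normalized to T=0 set at 100 for each pH.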

[3] = Solubility assessment (turbidity absorbance at 325 nm); format: physicochemical
Experimental: A stock solution of the test peptide (2 mg/ml; determined from the weighed amount of peptide) in demineralized water adjusted to pH 2.5 with HCl was prepared, and aliquots were diluted 1:1 in 100 mM acetate buffer (pH 4.0 and pH 5.0), 100 mM histidine buffer (pH 6.0 and pH 7.0) and 100 mM phosphate buffer (pH 6.0, pH 7.0 and pH 7.5), respectively, and loaded in a standard flat-bottom, non-sterile 96-well UV Microplate. The absorbance of samples (single samples, n=1) at 280 and 325 nm was measured in an absorbance-based plate reader, which was preheated to ambient temperature (typically 25° C.).

[4] = 100 mM acetate buffer pH 4.0, ambient temperature, read-out: Solubility Acetate buffer pH 4
[5] = 100 mM acetate buffer pH 5.0, ambient temperature, read-out: Solubility Acetate buffer pH 5
[6] = 100 mM histidine buffer pH 6.0, ambient temperature, read-out: Solubility Histidine buffer pH 6
[7] = 100 mM histidine buffer pH 7.0, ambient temperature, read-out: Solubility Histidine buffer pH 7
[8] = 100 mM phosphate buffer pH 6.0, ambient temperature, read-out: Solubility Phosphate buffer pH 6
[9] = 100 mM phosphate buffer pH 7.0, ambient temperature, read-out: Solubility Phosphate buffer pH 7
[10] = 100 mM phosphate buffer pH 7.5, ambient temperature, read-out: Solubility Phosphate buffer pH 7.5

pH 7 normalized stability [2]	solubility [3, 4] [µg/mL]	solubility [3, 5] [µg/mL]	solubility [3, 6] [µg/mL]	solubility [3, 7] [µg/mL]	solubility [3, 8] [µg/mL]	solubility [3, 9] [µg/mL]	solubility [3, 10] [µg/mL]	pH 6 normalized stability ([2]; pH 6, 40° C.)	SMILES	EC50 [1] [nM]
									CC[C@H](C)[C@H](NC(=O)[C@H](Cc1ccccc1)NC(=O)[C@H](CC(=O)O)NC(=O)[C@H](CCCNC(=N)N)NC(=O)[C@H](C)NC(=O)[C@H](C)NC(=O)[C@H](CCC(=O)O)NC(=O)[C@H](CCCCNC(=O)CC[C@H](NC(=O)CCCCCCCCCCCCCCCCC(=O)O)C(=O)O)NC(=O)[C@H](CC(=O)O)NC(=O)[C@H](CC(C)C)NC(=O)[C@@H](NC(=O)[C@@H](NC(=O)[C@H](C)NC(=O)[C@H](CC(C)C)NC(=O)[C@H](CCC(=O)O)NC(=O)[C@H](CO)NC(=O)[C@@H](NC(=O)[C@H](Cc1ccccc1)NC(=O)[C@@H](NC(=O)CNC(=O)[C@H](CCC(=O)O)NC(=O)C(C)(C)NC(=O)[C@@H](N)Cc1c[nH]cn1)[C@@H](C)O)[C@@H](C)O)[C@@H](C)O)[C@@H](C)CC)C(=O)N[C@@H](C)C(=O)N[C@@H](Cc1c[nH]c2ccccc12)C(=O)N[C@@H](CC(C)C)C(=O)N[C@H](C(=O)N[C@@H](CCC(=O)O)C(=O)N[C@@H](Cc1c[nH]cn1)C(=O)N[C@@H](CCCCN)C(=O)N[C@H](C(=O)N[C@H](C(=O)N[C@@H](CC(=O)O)C(=O)O)[C@@H](C)O)[C@@H](C)CC)[C@@H](C)CC [Compound 3] (HELM PEPTIDE1{H.[Aib].E.G.T.F.T.S.E.L.A.T.I.L.D.K.E.A.A.R.D.F.I.A.W.L.I.E.H.K.I.T.D}|PEPTIDE2{[O=C(O)CCCCCCCCCCCCCCCCC(=O)[*:2]].[gGlu]}$PEPTIDE1,PEPTIDE2,16:R3-2:R2$$$V2.0)	0.33
									CC[C@H](C)[C@H](NC(=O)[C@H](Cc1ccccc1)NC(=O)[C@H](CC(=O)O)NC(=O)[C@H](CCCNC(=N)N)NC(=O)[C@H](C)NC(=O)[C@H](C)NC(=O)[C@H](CCCCN)NC(=O)[C@H](CCCCNC(=O)COCCOCCNC(=O)[C@H](CCCCN)NC(=O)[C@H](CCC(=O)O)NC(=O)[C@H](CCCCN)NC(=O)CC[C@H](NC(=O)CCCCCCCCCCCCCCCCCCC(=O)O)C(=O)O)NC(=O)[C@H](CC(=O)O)NC(=O)[C@H](CC(C)C)NC(=O)[C@@H](NC(=O)[C@@H](NC(=O)[C@H](C)NC(=O)[C@H](CC(C)C)NC(=O)[C@H](CCC(=O)O)NC(=O)[C@H](CO)NC(=O)[C@@H](NC(=O)[C@H](Cc1ccccc1)NC(=O)[C@H](CO)NC(=O)CNC(=O)[C@H](CCC(=O)O)NC(=O)C(C)(C)NC(=O)[C@@H](N)Cc1c[nH]cn1)[C@@H](C)O)[C@@H](C)O)[C@@H](C)CC)C(=O)N[C@@H](C)C(=O)N[C@@H](Cc1c[nH]c2ccccc12)C(=O)N[C@@H](CC(C)C)C(=O)N[C@H](C(=O)N[C@@H](CCC(=O)O)C(=O)N[C@@H](Cc1c[nH]cn1)C(=O)N[C@@H](CCCCN)C(=O)N[C@H](C(=O)N[C@H](C(=O)N[C@@H](CC(=O)O)C(=O)O)[C@@H](C)O)[C@@H](C)CC)[C@@H](C)CC [Compound 59] (HELM PEPTIDE1{H.[Aib].E.G.S.F.T.S.E.L.A.T.I.L.D.K.K.A.A.R.D.F.I.A.W.L.I.E.H.K.I.T.D}|PEPTIDE2{[O=C(O)CCCCCCCCCCCCCCCCCCC(=O)[*:2]].[gGlu].K.E.K.[O=C(COCCOCCN[*:1])[*:2]]}$PEPTIDE1,PEPTIDE2,16:R3-6:R2$$$V2.0)	0.11
A (>90% normalised stability)	≥ 1000	< 1000	< 1000	≥ 1000	< 1000	≥ 1000	≥ 1000		CC[C@H](C)[C@H](NC(=O)[C@H](Cc1ccccc1)NC(=O)[C@H](CC(=O)O)NC(=O)[C@H](CCCNC(=N)N)NC(=O)[C@H](C)NC(=O)[C@H](C)NC(=O)[C@H](CCC(N)=O)NC(=O)[C@H](CCCCNC(=O)CC[C@H](NC(=O)CCCCCCCCCCCCCCCCC(=O)O)C(=O)O)NC(=O)[C@H](CC(=O)O)NC(=O)[C@H](CC(C)C)NC(=O)[C@@H](NC(=O)[C@@H](NC(=O)[C@H](C)NC(=O)[C@H](CC(C)C)NC(=O)[C@H](CCC(=O)O)NC(=O)[C@H](CO)NC(=O)[C@@H](NC(=O)[C@H](Cc1ccccc1)NC(=O)[C@H](CO)NC(=O)CNC(=O)[C@H](CCC(=O)O)NC(=O)C(C)(C)NC(=O)[C@@H](N)Cc1c[nH]cn1)[C@@H](C)O)[C@@H](C)O)[C@@H](C)CC)C(=O)N[C@@H](C)C(=O)N[C@@H](Cc1c[nH]c2ccccc12)C(=O)N[C@@H](CC(C)C)C(=O)N[C@H](C(=O)N[C@@H](Cc1c[nH]cn1)C(=O)N[C@@H](Cc1c[nH]cn1)C(=O)N[C@@H](CCCCN)C(=O)N[C@H](C(=O)N[C@H](C(=O)N[C@@H](CC(=O)O)C(=O)O)[C@@H](C)O)[C@@H](C)CC)[C@@H](C)CC [Compound 26] (HELM PEPTIDE1{H.[Aib].E.G.S.F.T.S.E.L.A.T.I.L.D.K.Q.A.A.R.D.F.I.A.W.L.I.H.H.K.I.T.D}|PEPTIDE2{[O=C(O)CCCCCCCCCCCCCCCCC(=O)[*:2]].[gGlu]}$PEPTIDE1,PEPTIDE2,16:R3-2:R2$$$V2.0)	
A (>90% normalised stability)	< 1000	< 1000	≥ 1000	≥ 1000	≥ 1000	≥ 1000	≥ 1000	A (>90% normalised stability)	CC[C@H](C)[C@H](NC(=O)[C@H](Cc1ccccc1)NC(=O)[C@H](CC(=O)O)NC(=O)[C@H](CCCNC(=N)N)NC(=O)[C@H](C)NC(=O)[C@H](C)NC(=O)[C@H](CCC(N)=O)NC(=O)[C@H](CCCCNC(=O)CC[C@H](NC(=O)CCCCCCCCCCCCCCCCC(=O)O)C(=O)O)NC(=O)[C@H](CC(=O)O)NC(=O)[C@H](CC(C)C)NC(=O)[C@@H](NC(=O)[C@@H](NC(=O)[C@H](C)NC(=O)[C@H](CC(C)C)NC(=O)[C@H](CCC(=O)O)NC(=O)[C@H](CO)NC(=O)[C@@H](NC(=O)[C@H](Cc1ccccc1)NC(=O)[C@@H](NC(=O)CNC(=O)[C@H](CCC(=O)O)NC(=O)C(C)(C)NC(=O)[C@@H](N)Cc1c[nH]cn1)[C@@H](C)O)[C@@H](C)O)[C@@H](C)O)[C@@H](C)CC)C(=O)N[C@@H](C)C(=O)N[C@@H](Cc1c[nH]c2ccccc12)C(=O)N[C@@H](CC(C)C)C(=O)N[C@H](C(=O)N[C@@H](CCC(N)=O)C(=O)N[C@@H](Cc1c[nH]cn1)C(=O)N[C@@H](CCCCN)C(=O)N[C@H](C(=O)N[C@H](C(=O)N[C@@H](CC(=O)O)C(=O)O)[C@@H](C)O)[C@@H](C)CC)[C@@H](C)CC [Compound 19] (HELM PEPTIDE1{H.[Aib].E.G.T.F.T.S.E.L.A.T.I.L.D.K.Q.A.A.R.D.F.I.A.W.L.I.Q.H.K.I.T.D}|PEPTIDE2{[O=C(O)CCCCCCCCCCCCCCCCC(=O)[*:2]].[gGlu]}$PEPTIDE1,PEPTIDE2,16:R3-2:R2$$$V2.0)	
